Data reported in the supplement of paper PMC12513837.
± gives the standard deviation of the averaged measurements.

compound: CC(=O)N1CCc2c(c(N3CCCc4cc(-c5cnn(C)c5)c(C(F)F)cc43)nn2C2CCC(CN3CCN(c4ccc5c(c4)C(=O)N(C4CCC(=O)NC4=O)C5=O)CC3)CC2)C1 [CBPD-409]; assay: AUC of viability dose-response curve (relative to vehicle, 8 doses up to 10 µM) (fraction); higher = less sensitive (more viable); extreme values may be limits of the assay
Protocol: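 PRISM multiplexed pooled barcoded cell line viability screen at the Broad Institute, 887 cancer cell lines treated with CBPD-409 (p300/CBP PROTAC degrader) at 8 concentrations in threefold dilution, top dose 10 µM. The read-out is the area under the dose-response curve of relative viability versus vehicle (n=3). AUC < 0.3 is called strongly sensitive and AUC > 0.8 resistant.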

Test System	AUC of viability dose-response curve
MELJUSO_SKIN	1
MESSA_SOFT_TISSUE	0.126
MEWO_SKIN	0.268
MFE280_ENDOMETRIUM	0.581
MFE296_ENDOMETRIUM	0.514
MFE319_ENDOMETRIUM	0.353
MG63_BONE	1
MHHES1_BONE	0.842 ± 0.2
MHHNB11_AUTONOMIC_GANGLIA	0.488
MIAPACA2_PANCREAS	1
MKN1_STOMACH	1
MKN7_STOMACH	0.517
MKN45_STOMACH	0.238
MKN74_STOMACH	0.493
MM1S_HAEMATOPOIETIC_AND_LYMPHOID_TISSUE	0.328
MM127_SKIN	1
MMNK1_BILIARY_TRACT	0.479
MOLM13_HAEMATOPOIETIC_AND_LYMPHOID_TISSUE	0.356
MOLM14_HAEMATOPOIETIC_AND_LYMPHOID_TISSUE	0.212
MOLP2_HAEMATOPOIETIC_AND_LYMPHOID_TISSUE	0.555
MOLT3_HAEMATOPOIETIC_AND_LYMPHOID_TISSUE	1
MOLT13_HAEMATOPOIETIC_AND_LYMPHOID_TISSUE	1
MOLT16_HAEMATOPOIETIC_AND_LYMPHOID_TISSUE	0.445

Test System	AUC of viability dose-response curve
MONOMAC1_HAEMATOPOIETIC_AND_LYMPHOID_TISSUE	1
MONOMAC6_HAEMATOPOIETIC_AND_LYMPHOID_TISSUE	0.577
MON_SOFT_TISSUE	0.486
MP41_UVEA	0.212
MPP89_PLEURA	1
MS751_CERVIX	0.923
MSTO211H_PLEURA	0.672
NALM6_HAEMATOPOIETIC_AND_LYMPHOID_TISSUE	0.331
NB1_AUTONOMIC_GANGLIA	0.112 ± 0.083
NB4_HAEMATOPOIETIC_AND_LYMPHOID_TISSUE	0.277
NCIH23_LUNG	0.771
NCIH28_PLEURA	1
NCIH82_LUNG	1
NCIH157DM_LUNG	0.559
NCIH196_LUNG	0.755
NCIH226_LUNG	0.519
NCIH292_LUNG	0.831
NCIH322_LUNG	0.574
NCIH358_LUNG	1
NCIH441_LUNG	0.558
NCIH446_LUNG	0.445
NCIH460_LUNG	1
NCIH520_LUNG	0.861

Test System	AUC of viability dose-response curve
NCIH522_LUNG	0.942
NCIH524_LUNG	1
NCIH596_LUNG	1
NCIH647_LUNG	1
NCIH650_LUNG	0.606
NCIH661_LUNG	0.567
NCIH727_LUNG	0.875
NCIH747_LARGE_INTESTINE	1
NCIH838_LUNG	0.893
NCIH841_LUNG	0.855
NCIH1048_LUNG	0.878
NCIH1092_LUNG	1
NCIH1299_LUNG	0.79
NCIH1341_LUNG	1
NCIH1355_LUNG	1
NCIH1373_LUNG	1
NCIH1435_LUNG	1
NCIH1437_LUNG	0.895
NCIH1563_LUNG	0.445
NCIH1568_LUNG	0.958
NCIH1573_LUNG	0.699
NCIH1581_LUNG	0.347
NCIH1623_LUNG	0.92

Test System	AUC of viability dose-response curve
NCIH1648_LUNG	0.448
NCIH1650_LUNG	0.583
NCIH1651_LUNG	1
NCIH1693_LUNG	0.949
NCIH1703_LUNG	0.78
NCIH1792_LUNG	0.59
NCIH1793_LUNG	0.838
NCIH1838_LUNG	0.758
NCIH1876_LUNG	1
NCIH1915_LUNG	0.697
NCIH1944_LUNG	1
NCIH1975_LUNG	0.862
NCIH2004RT_SOFT_TISSUE	1
NCIH2009_LUNG	0.596
NCIH2023_LUNG	1
NCIH2030_LUNG	1
NCIH2052_PLEURA	0.444
NCIH2087_LUNG	0.834
NCIH2110_LUNG	0.703
NCIH2122_LUNG	0.654
NCIH2126_LUNG	1
NCIH2170_LUNG	1
NCIH2171_LUNG	1

Test System	AUC of viability dose-response curve
NCIH2172_LUNG	0.62
NCIH2196_LUNG	1
NCIH2228_LUNG	0.91
NCIH2347_LUNG	0.648
NCIH2444_LUNG	1
NCIH2452_PLEURA	1
NCO2_HAEMATOPOIETIC_AND_LYMPHOID_TISSUE	0.243
NIHOVCAR3_OVARY	1
NOMO1_HAEMATOPOIETIC_AND_LYMPHOID_TISSUE	0.279
NOZ_LIVER	1
NP2_CENTRAL_NERVOUS_SYSTEM	0.868
NP3_CENTRAL_NERVOUS_SYSTEM	0.802
NP5_CENTRAL_NERVOUS_SYSTEM	0.488
NUDHL1_HAEMATOPOIETIC_AND_LYMPHOID_TISSUE	0.67
NUGC3_STOMACH	1
NUGC4_STOMACH	0.344
NZOV9_OVARY	1
OACM51_OESOPHAGUS	1
OAW42_OVARY	0.814
OC314_OVARY	0.619
OC316_OVARY	0.486
OCIAML2_HAEMATOPOIETIC_AND_LYMPHOID_TISSUE	0.551
OCIAML5_HAEMATOPOIETIC_AND_LYMPHOID_TISSUE	0.461
